Measurements reported in paper PMC12019328, “Discovery of an ApoE4-targeted small-molecule SirT1 enhancer for the treatment of Alzheimer’s disease” (Scientific Reports, 2025).
Where “and” joins values, the source holds several entries; their conditions need not be identical. Equal entries are not always repeated.

Tests used:
[1] = Observation of mice behavior in the PK study; type: in vivo; conditions: oral gavage 10 or 30 mg/Kg
Method: C57BL/6J mice were administered DDL-214, -218, or -219 (n = 3 per compound) by oral gavage at a dose of 30 mg/kg in a volume of 5 mL/Kg based on mouse weight. One hour later, mice were euthanized by pentobarbital over-anesthesia and trans-cardial collection of blood for isolation of plasma by centrifugation at 10,000 x g for 10 min at 4 °C. Brain tissue was collected for analysis, frozen on dry ice and stored at -80 °C before analysis.

[2] = test system: SirT1 protein in N2a-E4 cells; assay: SirT1 protein levels in N2a-E4 cells (AlphaLISA); type: cell-based, murine; conditions: N2a-E4 cells, 5 µM, 24 h, vs DMSO control
Method: Relative SirT1 mRNA and protein enhancement by racemate DDL-214 and enantiomers DDL-218 and − 219 was determined in murine neuroblastoma cells stably transfected with ApoE4 (N2a-E4)[25]. All test compounds in DMSO were prepared at 2x the final concentration in DMEM supplemented with 10% fetal bovine serum (FBS) and 1% pen-strep (PS) and 50 µL of each loaded into individual wells of a 96-well plate. Previously cultured N2a-E4 were then trypsinized, harvested, centrifuged, and counted; then 50 µL of cell suspension adjusted to 400 cells/µL was added to each well. The plate was then incubated at 37 °C, 5% CO2 for 48 h. Cells were treated with DDL-214, DDL-218, or DDL-219 at 5 µM final then incubated for 24 h. After incubation, the cells were lysed with 50 µL of ice-cold lysis buffer (0.4% SDS, 3.5% Triton X-100, 0.02% sodium deoxycholate, 28 mM TRIS pH 8) complemented with 1X final Halt™ Protease and Phosphatase Inhibitor Cocktail (Thermo Fisher catalog # 78442), placed on ice for 10 min and at -80 °C, followed by 3 freeze/thaw cycles.
An AlphaLISA comprising streptavidin donor beads (Revvity catalog # 6760002 S), biotinylated anti-SirT1 N-terminal antibody (monoclonal 19A7AB4, Abcam catalog # ab110304), and acceptor beads (Revvity catalog # 6772001) conjugated to the anti-SirT1 C-terminal antibody (monoclonal 1F3, Abcam catalog # ab104833) was used to determine SirT1 protein levels. […] The plates were read using an Envision plate reader.
Figure S3B. […] Compound treatment was done at 5 and 50 µM. SirT1 levels were measured by AlphaLISA followed and normalized to protein […]
Brain tissue was homogenized in PBS (pH 7.4) (1: 3 weight(mg)/volume(µL)) and the protein concentration of was determined using the Micro BCA™ Protein Assay Kit (Thermo Fisher Scientific, Cat#23235). […]
The % of the unbound drug (fu,bound) was calculated using the following equation: fu,bound = [normalized peak area in buffer side / normalized peak area in brain side] x 100 Liver Microsome Stability [t1/2 (min)] […]

[3] = test system: SirT1 mRNA in Kelly cells; assay: SirT1 mRNA in Kelly neuroblastoma cells; type: cell-based, human; conditions: 5 µM, 24 h, vs DMSO control
Method: Human neuroblastoma ‘Kelly’ cells (genotype APOE3/APOE4) were plated in 96-well plates at 50K cells per well and were grown overnight in RPMI 1640 supplemented with 2 mM Glutamine, 10% FBS and 1% Pen-Strep. Cells were treated with 5 µM DDL-214, -218, or -219; or DMSO vehicle (n = 8 per compound). Twenty-four hours later, medium was removed, cells washed and lysed as described above for N2a-E4 cells.
Total RNA was isolated from cells or brain tissue (Qiagen RNEasy kit). Total RNA (0.5–1.0 µg) mRNA was then converted to cDNA (SuperScript™ III First-Strand Synthesis SuperMix kit; Thermo Fisher), and gene mRNA levels were measured using a gene-specific qRT-PCR Taqman assays (Thermo Fisher). Gene mRNA levels were normalized to GAPDH mRNA levels measured either in the same cDNA sample or in the same qPCR reaction using multiplexing of gene-of-interest/VIC and GAPDH/FAM, normalized by the delta-delta-Ct method.

[4] = In vivo pharmacokinetic analysis, brain levels after oral gavage; set-up: species or system C57BL/6J mice; conditions: for brain levels: single time point one hour, oral gavage 30 mg/Kg, n = 1
Method: […] One hour later, mice were euthanized by pentobarbital over-anesthesia and trans-cardial collection of blood for isolation of plasma by centrifugation at 10,000 x g for 10 min at 4 °C. Brain tissue was collected for analysis, frozen on dry ice and stored at -80 °C before analysis.
For LC/MS/MS analysis, tissue samples were homogenized in a bead beater using 5 volumes of ice-cold 80% acetonitrile (1/5; mg of tissue/ µL of 80% ACN). Solutions were clarified by centrifugation (16,000 x g, 5 min) and the supernatants were transferred to new tubes and lyophilized. Samples were reconstituted in 100 µL of 50/50/0.1 (water/acetonitrile/formic acid) before analysis via liquid chromatography-tandem mass spectrometry.
A 6460 triple quadrupole mass spectrometer (Agilent Technologies) coupled to a 1290 Infinity HPLC system (Agilent Technologies) with a Phenomenex analytical column (Kinetex 1.7 μm C18 100 Å 100 × 2.1 mm) was used for HPLC. The HPLC method utilized a mixture of solvent A (99.9/1 water/formic acid) and solvent B (99.9/1 acetonitrile/formic acid) and a gradient was used for the elution of the compounds (min/%B: 0/20, 3/20, 19/99, 20/99, 21/20, 30/20).
An internal standard (IS; Reserpine) was added to every sample to account for compound loss during sample processing. Standards were made in drug naïve brain and plasma with increasing amounts of DDL-214- (S1,S2: 0.1 pmol/ S3,S4: 1 pmol/ S5,S6: 10 pmol/ S7,S8: 100 pmol/ S9,S10: 1000 pmol). The standard curve was made by plotting the amount of each compound per standard vs. the ratio of measured chromatographic peak areas corresponding to DDL-214 (DDL-214 -/Reserpine). The trendline equation was then used to calculate the absolute concentrations of DDL-214/-218/-219 in brain tissue and plasma.

SMILES | changes in mice behavior indicative of drug-induced toxicity [1] | SirT1 protein levels [2] | SirT1 mRNA [3] | brain Cmax ([4]; oral 30 mg/Kg, time course study, 30 mg/kg) | brain Cmax ([4]; oral gavage 10 mg/Kg, wildtype mouse, at one hour, 10 mg/kg) | brain levels ([4]; 30 mg/kg)
CC(N)C(=O)OC(C)(C)Cc1ccncc1 (centres unmarked) [DDL-214] | No notable changes in mice behavior | increased SirT1 protein levels | higher than DMSO control, but the difference was not significant | ~ 9400 ng/g and 42.3 µM | 1270 ng/g and 5.7 µM | ~ 3000 ng/g and 13.5 µM
CC(N)C(=O)OC(C)(C)Cc1ccncc1 (centres unmarked) [DDL-219] | No notable changes in mice behavior |  |  |  |  | ~ 6500 ng/g and 29.2 µM
